Each molecule was assayed on Aβ42 production (assay: Quantification of Aβ peptide in culture of neurons from rat fetus brain (Aβ42 ELISA)). Conditions: Neuron, 72 h, rat primary neuronal culture (embryonic day 18 Wistar rat cerebral cortex), medium collected three days after addition of compound, read-out: Aβ42 production reducing effect IC50.
Type: cell-based
Method: Quantification of Aβ Peptide in Culture of Neurons from Rat Fetus Brain
Primary neuronal cultures were prepared from the cerebral cortex of embryonic day 18 Wistar rats (Charles River Japan, Yokohama, Japan). Specifically, the embryos were aseptically removed from pregnant rats under ether anesthesia. The brain was isolated from the embryo and immersed in an ice-cold L-15 medium (such as Invitrogen Corp. Cat #11415-064, Carlsbad, Calif., USA, or SIGMA L1518). The cerebral cortex was collected from the isolated brain under a stereoscopic microscope. The cerebral cortex fragments collected were enzymatically treated in an enzyme solution containing 0.25% trypsin (Invitrogen Corp. Cat #15050-065, Carlsbad, Calif., USA) and 0.01% DNase (Sigma D5025, St. Louis, Mo., USA) at 37° C. for 30 minutes to disperse the cells. Here, the enzymatic reaction was stopped by adding inactivated horse serum to the solution. The enzymatically treated solution was centrifuged at 1,500 rpm for five minutes to remove the supernatant. 5 to 10 ml of a medium was added to the resulting cell mass. Neurobasal medium (Invitrogen Corp. Cat #21103-049, Carlsbad, Calif., USA) supplemented with 2% B27 supplement (Invitrogen Corp. Cat #17504-044, Carlsbad, Calif., USA), 25 μM 2-mercaptoethanol (2-ME, WAKO Cat #139-06861, Osaka, Japan), 0.5 mM L-glutamine (Invitrogen Corp. Cat #25030-081, Carlsbad, Calif., USA), and Antibiotics-Antimycotics (Invitrogen Corp. Cat #15240-062, Carlsbad, Calif., USA) was used as the medium (Neurobasal/B27/2-ME). However, the above Neurobasal medium not supplemented with 2-ME (Neurobasal/B27) was used for the assay. The cells were redispersed by mild pipetting of the cell mass to which the medium was added. The cell dispersion was filtered through a 40-μm nylon mesh (Cell Strainer, Cat #35-2340, Becton Dickinson Labware, Franklin Lakes, N.J., USA) to remove the remaining cell mass, and thus a neuronal cell suspension was obtained. The neuronal cell suspension was diluted with the medium and then plated in a volume of 100 μl/well at an initial cell density of 5×10^5 cells/cm^2 in a 96-well polystyrene culture plate pre-coated with poly-L or D-lysine (Falcon Cat #35-3075, Becton Dickinson Labware, Franklin Lakes, N.J., USA coated with poly-L-lysine using the method shown below, or BIOCOAT™ cell environments Poly-D-lysine cell ware 96-well plate, Cat #35-6461, Becton Dickinson Labware, Franklin Lakes, N.J., USA). Poly-L-lysine coating was carried out as follows. 100 μg/ml of a poly-L-lysine (SIGMA P2636, St. Louis, Mo., USA) solution was aseptically prepared with a 0.15 M borate buffer (pH 8.5). […] of the solution was added to the 96-well polystyrene culture plate and incubated at room temperature for one or more hours or at 4° C. overnight or longer. Thereafter, the coated 96-well polystyrene culture plate was washed with sterile water four or more times, and then dried or rinsed with, for example, sterile PBS or medium, and used for cell plating. The plated cells were cultured in the culture plate at 37° C. in 5% CO2-95% air for one day. Then, the total amount of the medium was replaced with a fresh Neurobasal/B27/2-ME medium, and then the cells were cultured for further three days.
The drug was added to the culture plate on Day 4 of culture as follows. The total amount of the medium was removed from the wells, and 180 μl/well of Neurobasal medium not containing 2-ME and containing 2% B-27 (Neurobasal/B27) was added thereto. A solution of the test compound in dimethyl sulfoxide (hereinafter abbreviated as DMSO) was diluted with Neurobasal/B27 to a concentration 10-fold higher than the final concentration. 20 μl/well of the dilution was added to and sufficiently mixed with the medium. The final DMSO concentration was 1% or less. Only DMSO was added to the control group.
The cells were cultured for three days after addition of the compound, and the total amount of the medium was collected. […]
Molecule `C[C@H]1COC[C@]2(c3cc(NC(=O)c4ccc(C#N)cn4)ccc3F)N=C(N)SC[C@H]12` (relative stereo) [Example 27, N-[3-((4aR*,5R*,8aS*)-2-amino-5-methyl-4,4a,5,6-tetrahydro-7-oxa-3-thia-1-azanaphthalen-8a-yl)-4-fluorophenyl]-5-cyanopyridine-2-carboxamide] has an IC50 of 8 nM.
In the case of `C[C@H]1COC[C@]2(c3cc(NC(=O)c4cnc(OC(F)F)cn4)ccc3F)N=C(N)SC[C@H]12` (relative stereo) [Example 28, N-[3-((4aR*,5R*,8aS*)-2-amino-5-methyl-4,4a,5,6-tetrahydro-7-oxa-3-thia-1-azanaphthalen-8a-yl)-4-fluorophenyl]-5-difluoromethoxypyrazine-2-carboxamide], the IC50 is reported as 1.4 nM.
`C[C@H]1COC[C@]2(c3cc(NC(=O)c4cnc(C(F)F)cn4)ccc3F)N=C(N)SC[C@H]12` (relative stereo) [Example 29, N-[3-((4aR*,5R*,8aS*)-2-amino-5-methyl-4,4a,5,6-tetrahydro-7-oxa-3-thia-1-azanaphthalen-8a-yl)-4-fluorophenyl]-5-difluoromethylpyrazine-2-carboxamide] was tested, and the IC50 was 3 nM.
`CO[C@H]1COC[C@]2(c3cc(NC(=O)c4ccc(C#N)cn4)ccc3F)N=C(N)SC[C@H]12` (relative stereo) [Example 30, N-[3-((4aS*,5R*,8aS*)-2-amino-5-methoxy-4,4a,5,6-tetrahydro-7-oxa-3-thia-1-azanaphthalen-8a-yl)-4-fluorophenyl]-5-cyanopyridine-2-carboxamide] showed an IC50 of 6 nM.
`C[C@H]1SC(N)=N[C@@]2(c3cc(NC(=O)c4ccc(C#N)cn4)ccc3F)COCC[C@@H]12` (relative stereo) [Example 31, N-[3-((2R*,4aR*,8aS*)-2-amino-4-methyl-4,4a,5,6-tetrahydro-7-oxa-3-thia-1-azanaphthalen-8a-yl)-4-fluorophenyl]-5-cyanopyridine-2-carboxamide] showed an IC50 of 1.9 nM.
For `C[C@H]1SC(N)=N[C@@]2(c3cc(NC(=O)c4cnc(C(F)F)cn4)ccc3F)COCC[C@@H]12` (relative stereo) [Example 32, N-[3-((2R*,4aR*,8aS*)-2-amino-4-methyl-4,4a,5,6-tetrahydro-7-oxa-3-thia-1-azanaphthalen-8a-yl)-4-fluorophenyl]-5-difluoromethylpyrazine-2-carboxamide], the IC50 was 3 nM.
`N#Cc1ccc(C(=O)Nc2ccc(F)c([C@]34CO[C@@H](C(F)(F)F)C[C@H]3CSC(N)=N4)c2)nc1` (relative stereo) [Example 35, N-[3-((4aR*,6R*,8aS*)-2-amino-6-trifluoromethyl-4,4a,5,6-tetrahydro-7-oxa-3-thia-1-azanaphthalen-8a-yl)-4-fluorophenyl]-5-cyanopyridine-2-carboxamide] was tested, and the IC50 was 2.1 nM.
With `NC1=N[C@@]2(c3cc(NC(=O)c4cnc(OC(F)F)cn4)ccc3F)CO[C@@H](C(F)(F)F)C[C@H]2CS1` (relative stereo) [Example 36, N-[3-((4aR*,6R*,8aS*)-2-amino-6-trifluoromethyl-4,4a,5,6-tetrahydro-7-oxa-3-thia-1-azanaphthalen-8a-yl)-4-fluorophenyl]-5-difluoromethoxypyrazine-2-carboxamide] the IC50 was 0.5 nM.
In the case of `NC1=N[C@@]2(c3cc(NC(=O)c4ccc(F)cn4)ccc3F)CO[C@@H](C(F)(F)F)C[C@H]2CS1` (relative stereo) [Example 37, N-[3-((4aR*,6R*,8aS*)-2-amino-6-trifluoromethyl-4,4a,5,6-tetrahydro-7-oxa-3-thia-1-azanaphthlen-8a-yl)-4-fluorophenyl]-5-fluoropyriidne-2-carboxamide], the IC50 is reported as 2 nM.
Molecule `NC1=N[C@@]2(c3cc(NC(=O)c4ccccn4)ccc3F)CO[C@@H](C(F)(F)F)C[C@H]2CS1` (relative stereo) [Example 38, N-[3-((4aR*,6R*,8aS*)-2-amino-6-trifluoromethyl-4,4a,5,6-tetrahydro-7-oxa-3-thia-1-azanaphthalen-8a-yl)-4-fluorophenyl]-pyridine-2-carboxamide] has an IC50 of 3 nM.
`NC1=N[C@@]2(c3cc(NC(=O)c4cnc(OCF)cn4)ccc3F)CO[C@@H](C(F)(F)F)C[C@H]2CS1` (relative stereo) [Example 39, N-[3-((4aR*,6R*,8aS*)-2-amino-6-trifluoromethyl-4,4a,5,6-tetrahydro-7-oxa-3-thia-1-azanaphthalen-8a-yl)-4-fluorophenyl]-5-fluoromethoxypyrazine-2-carboxamide] gave an IC50 of 1 nM.
With `NC1=N[C@@]2(c3cc(NC(=O)c4ccncn4)ccc3F)CO[C@@H](C(F)(F)F)C[C@H]2CS1` (relative stereo) [Example 40, N-[3-((4aR*,6R*,8aS*)-2-amino-6-trifluoromethyl-4,4a,5,6-tetrahydro-7-oxa-3-thia-1-azanaphthalen-8a-yl)-4-fluorophenyl]-pyrimidine-4-carboxamide] the IC50 was 2 nM.
`NC1=N[C@@]2(c3cc(NC(=O)c4ncc(F)cc4F)ccc3F)CO[C@@H](C(F)(F)F)C[C@H]2CS1` (relative stereo) [Example 41, N-[3-((4aR*,6R*,8aS*-2-amino-6-trifluoromethyl-4,4a,5,6-tetrahydro-7-oxa-3-thia-1-azanaphthalen-8a-yl)-4-fluorophenyl]-3,5-difluoropyridine-2-carboxamide] was tested, and the IC50 was 2 nM.
Molecule `NC1=N[C@@]2(c3cc(NC(=O)c4ccc(OC(F)F)cn4)ccc3F)CO[C@@H](C(F)(F)F)C[C@H]2CS1` (relative stereo) [Example 42, N-[3-((4aR*,6R*,8aS*)-2-amino-6-trifluoromethyl-4,4a,5,6-tetrahydro-7-oxa-3-thia-1-azanaphthalen-8a-yl)-4-fluorophenyl]-5-difluoromethoxypyridine-2-carboxamide] has an IC50 of 0.9 nM.
Work on `NC1=N[C@@]2(c3cc(NC(=O)c4cnc(C(F)F)cn4)ccc3F)CO[C@@H](C(F)(F)F)C[C@H]2CS1` (relative stereo) [Example 43, N-[3-((4aR*,6R*,8aS*)-2-amino-6-trifluoromethyl-4,4a,5,6-tetrahydro-7-oxa-3-thia-1-azanaphthalen-8a-yl)-4-fluorophenyl]-5-difluoromethylpyrazine-2-carboxamide] yielded an IC50 of 1.7 nM.
`NC1=N[C@@]2(c3cc(-c4cccnc4F)ccc3F)CO[C@@H](C(F)(F)F)C[C@H]2CS1` (relative stereo) [Example 59, (±)-(4aR*,6R*,8aS*)-8a-[2-fluoro-5-(2-fluoropyridin-3-yl)phenyl]-6-trifluoromethyl-4,4a,5,6,8,8a-hexahydro-7-oxa-3-thia-1-azanaphthalen-2-ylamine] gave an IC50 of 87 nM.
With `N#Cc1ccc(C(=O)Nc2ccc(OC(F)(F)F)c([C@]34COCC[C@H]3CSC(N)=N4)c2)nc1` (single isomer, unassigned) [Example 4, N-[3-((4aR*,8aS*)-2-amino-4,4,5,6-tetrahydro-7-oxa-3-thia-1-azanaphthalen-8a-yl)-4-trifluoromethoxyphenyl]-5-cyanopyridine-2-carboxamide] the IC50 was 11 nM.
With `NC1=N[C@@]2(c3cc(NC(=O)c4ccc(Cl)cn4)ccc3OC(F)(F)F)COCC[C@H]2CS1` (single isomer, unassigned) [Example 5, N-[3-((8S*,8aS*)-2-amino-4,4a,5,6-tetrahydro-7-oxa-3-thia-1-azanaphthalen-8a-yl)-4-trifluoromethoxyphenyl]-5-chloropyridine-2-carboxamide] the IC50 was 58 nM.
